This is an account of results in patent publication US20090298834A1, “4-(AMINOMETHYL)CYCLOHEXANAMINE DERIVATIVES AS CALCIUM CHANNEL BLOCKERS” (priority 2008, published 2009).

For assay [1], the target named is T1, human α1G T-type channels (Homo sapiens, UniProt O43497).
T1 construct: expressed in transfected cells; host or cells: HEK 293
Description: T-type calcium channel block, whole cell patch clamp (α1G). Type of assay: cell-based. The following applies: HEK cells stably expressing human α1G; mainly non-inactivated protocol; values above 10 μM represented as 10 μM, values below 0.30 μM represented as 0.30 μM. In short, it runs like this: (§1)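 Resting block was measured mainly with the non-inactivated protocol: holding potential −110 mV, 1 s step to −100 mV, then a 50 ms test pulse at −40 mV. Recordings used stably transfected human α1G or α1H HEK293 lines, with compounds perfused in external solution containing 0.1-0.01% DMSO. IC50 values (μM) above 10 μM are reported as 10 μM.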
(In general: Patch clamp records ionic current or voltage across a cell membrane.)

The target in assay [2] is T2, human α1H T-type channels (Homo sapiens, UniProt O95180).
T2 construct: expressed in transfected cells; host or cells: HEK 293
Description: T-type calcium channel block, whole cell patch clamp (α1H). The class given is cell-based. The following applies: HEK cells stably expressing human α1H; mainly non-inactivated protocol; values above 10 μM represented as 10 μM. In short, it runs like this: as §1

T1 sequence (O43497 whole entry): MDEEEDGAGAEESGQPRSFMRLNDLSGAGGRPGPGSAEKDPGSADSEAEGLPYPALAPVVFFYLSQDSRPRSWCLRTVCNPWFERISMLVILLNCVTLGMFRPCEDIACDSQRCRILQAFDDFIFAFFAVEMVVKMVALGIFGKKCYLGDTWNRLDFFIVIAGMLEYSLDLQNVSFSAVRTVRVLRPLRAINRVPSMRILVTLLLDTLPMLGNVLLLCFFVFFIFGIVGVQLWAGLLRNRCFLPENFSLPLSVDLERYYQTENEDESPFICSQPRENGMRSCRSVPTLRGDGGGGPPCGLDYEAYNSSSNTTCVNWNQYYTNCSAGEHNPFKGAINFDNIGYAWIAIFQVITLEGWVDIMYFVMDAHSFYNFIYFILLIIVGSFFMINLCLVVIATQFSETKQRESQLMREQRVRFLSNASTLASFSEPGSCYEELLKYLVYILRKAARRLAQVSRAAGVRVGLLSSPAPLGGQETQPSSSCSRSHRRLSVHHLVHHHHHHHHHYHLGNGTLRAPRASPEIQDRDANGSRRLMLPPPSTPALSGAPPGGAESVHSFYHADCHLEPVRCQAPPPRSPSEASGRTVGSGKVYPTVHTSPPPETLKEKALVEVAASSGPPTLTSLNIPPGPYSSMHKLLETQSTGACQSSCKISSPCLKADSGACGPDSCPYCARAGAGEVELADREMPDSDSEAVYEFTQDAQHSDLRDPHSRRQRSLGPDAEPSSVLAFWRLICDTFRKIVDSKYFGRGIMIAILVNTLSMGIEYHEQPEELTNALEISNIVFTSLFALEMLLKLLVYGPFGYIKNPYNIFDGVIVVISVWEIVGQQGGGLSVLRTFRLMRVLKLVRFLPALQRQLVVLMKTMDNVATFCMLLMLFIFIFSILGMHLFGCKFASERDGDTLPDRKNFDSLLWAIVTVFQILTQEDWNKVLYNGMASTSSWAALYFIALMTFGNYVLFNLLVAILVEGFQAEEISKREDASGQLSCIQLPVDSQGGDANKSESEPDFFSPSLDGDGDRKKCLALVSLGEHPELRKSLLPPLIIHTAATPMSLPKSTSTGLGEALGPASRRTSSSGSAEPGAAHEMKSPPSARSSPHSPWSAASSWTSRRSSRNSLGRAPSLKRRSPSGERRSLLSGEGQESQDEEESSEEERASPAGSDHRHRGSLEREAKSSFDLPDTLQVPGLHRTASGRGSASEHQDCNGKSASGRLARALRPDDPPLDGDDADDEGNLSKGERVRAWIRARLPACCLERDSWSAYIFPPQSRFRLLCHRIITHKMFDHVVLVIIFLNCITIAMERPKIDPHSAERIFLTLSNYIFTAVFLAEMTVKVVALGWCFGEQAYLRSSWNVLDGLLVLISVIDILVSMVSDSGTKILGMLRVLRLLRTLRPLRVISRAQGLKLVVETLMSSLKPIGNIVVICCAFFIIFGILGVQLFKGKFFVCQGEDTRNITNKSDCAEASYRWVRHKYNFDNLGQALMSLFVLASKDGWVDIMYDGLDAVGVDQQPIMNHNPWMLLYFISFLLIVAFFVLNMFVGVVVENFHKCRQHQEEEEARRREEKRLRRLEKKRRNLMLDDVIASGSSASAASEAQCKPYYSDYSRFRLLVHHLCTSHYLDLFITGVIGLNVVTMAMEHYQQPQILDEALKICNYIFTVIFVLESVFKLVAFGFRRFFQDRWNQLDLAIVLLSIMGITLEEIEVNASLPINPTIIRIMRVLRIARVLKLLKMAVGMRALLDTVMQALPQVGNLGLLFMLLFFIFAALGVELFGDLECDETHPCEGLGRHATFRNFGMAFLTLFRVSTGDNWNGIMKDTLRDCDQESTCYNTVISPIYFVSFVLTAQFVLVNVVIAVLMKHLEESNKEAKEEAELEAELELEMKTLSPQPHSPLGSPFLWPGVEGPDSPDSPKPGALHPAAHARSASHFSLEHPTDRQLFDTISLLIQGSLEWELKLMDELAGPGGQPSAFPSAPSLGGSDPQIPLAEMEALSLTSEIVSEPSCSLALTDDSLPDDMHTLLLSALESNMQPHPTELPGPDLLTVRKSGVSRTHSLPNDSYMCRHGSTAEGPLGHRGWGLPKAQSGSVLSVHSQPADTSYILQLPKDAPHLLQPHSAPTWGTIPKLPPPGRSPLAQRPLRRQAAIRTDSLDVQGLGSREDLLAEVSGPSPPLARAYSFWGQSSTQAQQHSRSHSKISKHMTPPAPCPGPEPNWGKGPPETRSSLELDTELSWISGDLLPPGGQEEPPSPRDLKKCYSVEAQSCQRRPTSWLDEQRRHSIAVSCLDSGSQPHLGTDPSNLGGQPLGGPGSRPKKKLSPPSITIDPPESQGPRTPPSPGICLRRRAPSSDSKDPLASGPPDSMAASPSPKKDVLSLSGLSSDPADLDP
T2 sequence (O95180 whole entry): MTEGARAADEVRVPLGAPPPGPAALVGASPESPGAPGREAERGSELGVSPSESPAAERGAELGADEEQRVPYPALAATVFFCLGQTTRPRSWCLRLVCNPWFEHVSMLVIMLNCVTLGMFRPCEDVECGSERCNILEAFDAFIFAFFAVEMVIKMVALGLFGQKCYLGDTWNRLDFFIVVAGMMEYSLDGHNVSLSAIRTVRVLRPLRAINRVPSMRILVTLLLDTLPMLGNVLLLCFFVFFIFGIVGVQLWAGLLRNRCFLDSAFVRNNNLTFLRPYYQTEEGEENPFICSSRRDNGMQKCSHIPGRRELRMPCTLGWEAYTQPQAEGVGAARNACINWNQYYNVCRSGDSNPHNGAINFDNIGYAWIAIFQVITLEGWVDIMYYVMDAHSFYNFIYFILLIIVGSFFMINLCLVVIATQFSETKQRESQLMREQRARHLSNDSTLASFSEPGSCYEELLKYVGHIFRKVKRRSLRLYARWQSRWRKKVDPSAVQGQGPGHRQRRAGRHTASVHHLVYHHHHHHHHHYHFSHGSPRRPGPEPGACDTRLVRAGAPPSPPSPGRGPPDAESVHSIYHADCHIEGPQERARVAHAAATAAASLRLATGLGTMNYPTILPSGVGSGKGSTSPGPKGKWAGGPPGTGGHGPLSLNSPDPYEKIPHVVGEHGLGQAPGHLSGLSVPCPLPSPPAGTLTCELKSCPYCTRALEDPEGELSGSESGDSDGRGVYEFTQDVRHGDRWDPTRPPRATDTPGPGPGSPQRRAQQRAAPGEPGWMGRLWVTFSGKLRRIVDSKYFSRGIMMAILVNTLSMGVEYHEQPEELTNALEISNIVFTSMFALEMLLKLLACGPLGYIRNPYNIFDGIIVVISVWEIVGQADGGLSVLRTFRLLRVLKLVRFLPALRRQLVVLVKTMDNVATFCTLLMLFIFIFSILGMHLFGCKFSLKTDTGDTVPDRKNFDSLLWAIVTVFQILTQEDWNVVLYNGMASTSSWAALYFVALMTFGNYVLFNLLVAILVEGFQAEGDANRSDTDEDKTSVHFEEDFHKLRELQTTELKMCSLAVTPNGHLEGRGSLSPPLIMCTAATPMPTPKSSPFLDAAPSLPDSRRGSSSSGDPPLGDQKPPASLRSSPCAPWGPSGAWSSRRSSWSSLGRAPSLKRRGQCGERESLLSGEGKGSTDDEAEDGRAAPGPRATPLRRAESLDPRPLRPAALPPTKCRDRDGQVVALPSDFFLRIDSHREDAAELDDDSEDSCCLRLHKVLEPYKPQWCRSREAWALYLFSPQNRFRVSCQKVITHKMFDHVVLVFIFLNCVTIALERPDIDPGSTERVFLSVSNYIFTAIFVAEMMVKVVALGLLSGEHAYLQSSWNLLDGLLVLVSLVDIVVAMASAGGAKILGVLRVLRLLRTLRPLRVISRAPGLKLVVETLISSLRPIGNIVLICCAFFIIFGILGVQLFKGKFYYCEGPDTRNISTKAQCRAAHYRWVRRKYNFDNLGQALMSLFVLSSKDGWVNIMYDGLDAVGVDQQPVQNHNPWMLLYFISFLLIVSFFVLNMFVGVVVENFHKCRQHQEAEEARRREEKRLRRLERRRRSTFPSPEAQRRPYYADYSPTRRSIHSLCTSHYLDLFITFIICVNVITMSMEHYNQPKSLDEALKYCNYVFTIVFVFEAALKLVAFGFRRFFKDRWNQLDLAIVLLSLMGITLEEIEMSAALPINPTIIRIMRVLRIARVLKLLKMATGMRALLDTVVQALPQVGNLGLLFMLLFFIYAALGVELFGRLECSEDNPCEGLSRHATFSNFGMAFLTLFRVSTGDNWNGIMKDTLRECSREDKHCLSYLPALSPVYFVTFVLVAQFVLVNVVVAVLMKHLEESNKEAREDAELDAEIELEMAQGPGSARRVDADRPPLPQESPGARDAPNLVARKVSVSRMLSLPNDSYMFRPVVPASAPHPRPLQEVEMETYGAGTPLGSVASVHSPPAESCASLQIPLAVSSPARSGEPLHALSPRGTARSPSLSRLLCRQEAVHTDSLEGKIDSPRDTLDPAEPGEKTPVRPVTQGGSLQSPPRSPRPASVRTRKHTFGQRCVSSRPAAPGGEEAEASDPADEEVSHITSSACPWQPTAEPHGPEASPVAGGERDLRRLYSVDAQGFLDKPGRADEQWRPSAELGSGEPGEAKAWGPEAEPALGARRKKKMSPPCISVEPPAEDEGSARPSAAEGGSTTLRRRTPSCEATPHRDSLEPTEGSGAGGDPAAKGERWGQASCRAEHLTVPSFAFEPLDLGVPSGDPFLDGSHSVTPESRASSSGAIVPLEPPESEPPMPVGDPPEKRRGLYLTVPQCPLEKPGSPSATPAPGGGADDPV

By IC50 is commonly meant the concentration that inhibits the measured activity by half. Consider `O=C(CN[C@H]1CC[C@@H](CNC(=O)c2cc(C(F)(F)F)cc(C(F)(F)F)c2)CC1)NN1CCCCC1` [Compound 45, N-((cis-4-(2-oxo-2-(piperidin-1-ylamino)ethylamino)cyclohexyl)methyl)-3,5-bis(trifluoromethyl)benzamide], for which the 50% inhibitory concentration (IC50) is ≤ 300 nM in assay [1] and 450 nM in assay [2].
On the same counts, the results for `COc1ccccc1CN[C@H]1CC[C@@H](CNC(=O)c2cc(F)cc(C(F)(F)F)c2)CC1` [Compound 19, 3-fluoro-N-((cis-4-(2-methoxybenzylamino)cyclohexyl)methyl)-5-(trifluoromethyl)benzamide] are 530 nM and 1010 nM.
As for `Cc1cc(CN[C@H]2CC[C@H](CNC(=O)c3cc(C(F)(F)F)cc(C(F)(F)F)c3)CC2)no1` [Compound 67, N-((trans-4-((5-methylisoxazol-3-yl)methylamino)cyclohexyl)methyl)-3,5-bis(trifluoromethyl)benzamide], the IC50 in assay [1] worked out at 5590 nM; in assay [2], 2890 nM.
In the case of `CCN(CC)C(=O)CN[C@H]1CC[C@@H](CNC(=O)c2cc(C(F)(F)F)cc(C(F)(F)F)c2)CC1` [Compound 41, N-((cis-4-(2-(diethylamino)-2-oxoethylamino)cyclohexyl)methyl)-3,5-bis(trifluoromethyl)benzamide], the IC50 in assay [1] was ≤ 300 nM; in assay [2], 330 nM.
On to `NC1(C(=O)N[C@H]2CC[C@H](CC(=O)Nc3cc(C(F)(F)F)cc(C(F)(F)F)c3)CC2)CCCCC1` [Compound 117, 1-amino-N-(trans-4-(2-(3,5-bis(trifluoromethyl)phenylamino)-2-oxoethyl)cyclohexyl)cyclohexanecarboxamide], for which the figures for the concentration for half-maximal inhibition (IC50) in assay [1] and in assay [2] were 1070 nM and ≥ 10000 nM, respectively.
For `O=C(NC[C@H]1CC[C@@H](NCc2ccccc2O)CC1)c1cc(F)cc(C(F)(F)F)c1` [Compound 15, 3-fluoro-N-((cis-4-(2-hydroxybenzylamino)cyclohexyl)methyl)-5-(trifluoromethyl)benzamide], in that order: 780 nM and 1650 nM.
Take `O=C(CN[C@H]1CC[C@H](CNC(=O)c2cc(C(F)(F)F)cc(C(F)(F)F)c2)CC1)NCC(F)(F)F` [Compound 58, N-((trans-4-(2-oxo-2-(2,2,2-trifluoroethylamino)ethylamino)cyclohexyl)methyl)-3,5-bis(trifluoromethyl)benzamide]: the IC50 in assay [1] worked out at 1000 nM; in assay [2], 530 nM.
`O=C(NC[C@H]1CC[C@@H](NCc2ccccc2O)CC1)c1cc(C(F)(F)F)cc(C(F)(F)F)c1` [Compound 7, N-((cis-4-(2-hydroxybenzylamino)cyclohexyl)methyl)-3,5-bis(trifluoromethyl)benzamide]: the results for the 50% inhibitory concentration (IC50) in assay [1] and in assay [2] were ≤ 300 nM and 1540 nM, respectively.
Take `CC(C)(C)OC(=O)N[C@H]1CC[C@@H](CC(=O)Nc2cc(C(F)(F)F)cc(C(F)(F)F)c2)CC1` [Compound 105, tert-butyl cis-4-(2-(3,5-bis(trifluoromethyl)phenylamino)-2-oxoethyl)cyclohexylcarbamate]: the values for the IC50 in assay [1] and in assay [2] were 650 nM and 6070 nM, respectively.
For `COc1cc(F)cc(C(=O)NC[C@H]2CC[C@H](NCC(=O)N3CCCC3(C)C)CC2)c1` [Compound 209, N-(((1r,4r)-4-(2-(2,2-dimethylpyrrolidin-1-yl)-2-oxoethylamino)cyclohexyl)methyl)-3-fluoro-5-methoxybenzamide], the IC50 came out at 4050 nM in assay [1] and 1600 nM in assay [2].
In the case of `CN(C(=O)CN[C@H]1CC[C@H](CNC(=O)c2cc(C(F)(F)F)cc(C(F)(F)F)c2)CC1)C1CCCC1` [Compound 59, N-((trans-4-(2-(cyclopentyl(methyl)amino)-2-oxoethylamino)cyclohexyl)methyl)-3,5-bis(trifluoromethyl)benzamide], the figures for the IC50 in assay [1] and in assay [2] were ≤ 300 nM and 620 nM, respectively.
Regarding `O=C(C[C@H]1CC[C@H](NC(=O)C2(c3ccccc3)CCNCC2)CC1)Nc1cc(C(F)(F)F)cc(C(F)(F)F)c1` [Compound 121, (S)-N-(trans-4-(2-(3,5-bis(trifluoromethyl)phenylamino)-2-oxoethyl)cyclohexyl)-4-phenylpiperidine-4-carboxamide], the IC50 is 610 nM in assay [1] and ≥ 10000 nM in assay [2].
For `CC(C)(C)c1nc(CNC[C@H]2CC[C@H](NC(=O)c3cc(C(F)(F)F)cc(C(F)(F)F)c3)CC2)no1` [Compound 89, N-(trans-4-(((5-tert-butyl-1,2,4-oxadiazol-3-yl)methylamino)methyl)cyclohexyl)-3,5-bis(trifluoromethyl)benzamide], the IC50 in assay [1] is 1370 nM; in assay [2], 1950 nM.
On the same counts, the results for `CC(C)(C)C(O)CN[C@H]1CC[C@@H](CNC(=O)c2cc(F)cc(C(F)(F)F)c2)CC1` (stereo partly drawn) [Compound 2, 3-fluoro-N-((cis-4-(2-hydroxy-3,3-dimethylbutylamino)cyclohexyl)methyl)-5-(trifluoromethyl)benzamide] are 450 nM and 550 nM.
For the molecule `O=C(CN[C@H]1CC[C@@H](CNC(=O)c2cc(C(F)(F)F)cc(C(F)(F)F)c2)CC1)NCC1CCCCC1` [Compound 48, N-((cis-4-(2-(cyclohexylmethylamino)-2-oxoethylamine)cyclohexyl)methyl)-3,5-bis(trifluoromethyl)benzamide], the values for the half-maximal inhibitory concentration (IC50) in assay [1] and in assay [2] were 350 nM and 250 nM, respectively.
For `CC(C)(C)OC(=O)NCCN[C@H]1CC[C@@H](CNC(=O)c2cc(C(F)(F)F)cc(C(F)(F)F)c2)CC1` [Compound 98, tert-butyl 2-(cis-4-((3,5-bis(trifluoromethyl)benzamido)methyl)cyclohexylamino)ethylcarbamate], in that order: 410 nM and 780 nM.
In the case of `CC(C)(C)CC(=O)NCCN[C@H]1CC[C@H](CNC(=O)c2cc(C(F)(F)F)cc(C(F)(F)F)c2)CC1` [Compound 101, N-((trans-4-(2-(3,3-dimethylbutanamido)ethylamino)cyclohexyl)methyl)-3,5-bis(trifluoromethyl)benzamide], the IC50 in assay [1] stood at 1510 nM; in assay [2], 2050 nM.
As to `CCC(CC)NC(=O)CN[C@H]1CC[C@H](CNC(=O)c2cc(C(F)(F)F)cc(C(F)(F)F)c2)CC1` [Compound 57, N-((trans-4-(2-oxo-2-(pentan-3-ylamino)ethylamino)cyclohexyl)methyl)-3,5-bis(trifluoromethyl)benzamide], the IC50 was ≤ 300 nM in assay [1] and 430 nM in assay [2].
For the molecule `CC(C)(C)c1nc(CN[C@H]2CC[C@H](CNC(=O)c3cc(C(F)(F)F)cc(C(F)(F)F)c3)CC2)no1` [Compound 66, N-((trans-4-((5-tert-butyl-1,2,4-oxadiazol-3-yl)methylamino)cyclohexyl)methyl)-3,5-bis(trifluoromethyl)benzamide], the concentration for half-maximal inhibition (IC50) in assay [1] turned out to be 1340 nM; in assay [2], 3050 nM.
For `COc1cccc(O)c1CN[C@H]1CC[C@H](CNC(=O)c2cc(C(F)(F)F)cc(C(F)(F)F)c2)CC1` [Compound 33, N-((trans-4-(2-hydroxy-6-methoxybenzylamino)cyclohexyl)methyl)-3,5-bis(trifluoromethyl)benzamide], in that order: ≤ 300 nM and 710 nM.
Regarding `Cc1ccc(NC(=O)CN[C@H]2CC[C@@H](CNC(=O)c3cc(C(F)(F)F)cc(C(F)(F)F)c3)CC2)nc1` [Compound 73, N-((cis-4-(2-(5-methylpyridin-2-ylamino)-2-oxoethylamino)cyclohexyl)methyl)-3,5-bis(trifluoromethyl)benzamide], the values for the IC50 in assay [1] and in assay [2] were 310 nM and 700 nM, respectively.
On the same counts, the results for `CC1(C)COCCN1C(=O)CN[C@H]1CC[C@H](CNC(=O)c2cc(F)cc(Cl)c2)CC1` [Compound 203, 3-chloro-N-(((1r,4r)-4-(2-(3,3-dimethylmorpholino)-2-oxoethylamino)cyclohexyl)methyl)-5-fluorobenzamide] are 6130 nM and 2160 nM.
For `Cc1cc(CNC[C@H]2CC[C@H](NC(=O)c3cc(C(F)(F)F)cc(C(F)(F)F)c3)CC2)no1` [Compound 90, N-(trans-4-(((5-methylisoxazol-3-yl)methylamino)methyl)cyclohexyl)-3,5-bis(trifluoromethyl)benzamide], the IC50 in assay [1] stood at 3470 nM; in assay [2] it was 3860 nM.
As for `CN(C(=O)CN[C@H]1CC[C@@H](CNC(=O)c2cc(F)cc(Cl)c2)CC1)C(C)(C)C` [Compound 196, N-(((1s,4s)-4-(2-(tert-butyl(methyl)amino)-2-oxoethylamino)cyclohexyl)methyl)-3-chloro-5-fluorobenzamide], the IC50 is 1620 nM in assay [1] and 210 nM in assay [2].
As to `CN(C(=O)CN[C@H]1CC[C@H](CNC(=O)c2cc(F)cc(Cl)c2)CC1)C1(C)CCC1` [Compound 211, 3-chloro-5-fluoro-N-(((1r,4r)-4-(2-(methyl(1-methylcyclobutyl)amino)-2-oxoethylamino)cyclohexyl)methyl)benzamide], the figures for the IC50 in assay [1] and in assay [2] were 1180 nM and 540 nM, respectively.
On the same counts, the results for `CC(C)(C)OC(=O)NCCN[C@H]1CC[C@@H](CNC(=O)c2cc(F)cc(C(F)(F)F)c2)CC1` [Compound 97, tert-butyl 2-(cis-4-((3-fluoro-5-(trifluoromethyl)benzamido)methyl)cyclohexylamino)ethylcarbamate] are 900 nM and 900 nM.
On the same counts, the results for `CC1CCCCN1C(=O)CN[C@H]1CC[C@H](CNC(=O)c2cc(C(F)(F)F)cc(C(F)(F)F)c2)CC1` (stereo partly drawn) [Compound 76, N-((trans-4-(2-(2-methylpiperidin-1-yl)-2-oxoethylamino)cyclohexyl)methyl)-3,5-bis(trifluoromethyl)benzamide] are ≤ 300 nM and 615 nM.
